According to patent US11376264B2, “Use of bromodomain-containing protein 9 antagonists in combination with vitamin D receptor agonists in diabetes treatment” (Salk Institute for Biological Studies, priority 2017, dated 2022):

Key:
Assay type in all cases: cell-based, rat
INS1 cells = test: H3K27Ac ChIP-seq enhancer landscape in IL1β-treated INS1 cells; conditions: 1 hour IL1β
Text: The experimental procedure for ChIP was as previously described (Barish et al., 2010, Genes Dev 24:2760-5). Briefly, after fixation, nuclei from were isolated, lysed, and sheared with a Diagenode Bioruptor to yield DNA fragment sizes of 200-1,000 bp followed by immunoprecipitation.
The procedure was as previously described (Barish et al., 2010, Genes Dev 24:2760-5). Briefly, short DNA reads were aligned against the mouse mm9 or rat rn4 reference genome using the Illumina CASAVA v1.8.2. Reads were aligned using the Bowtie aligner, allowing up to two mismatches in the read. Only tags that map uniquely to the genome were considered for further analysis. Subsequent peak calling and motif analysis were conducted using HOMER, a software suite for ChIP-seq analysis. The methods for HOMER, described below, have been implemented and are available at http://homer.ucsd.edu. One tag from each unique position was considered to eliminate peaks resulting from clonal amplification of fragments during the ChIP-seq protocol. Peaks were identified by searching for clusters of tags within a sliding 200 bp window, requiring adjacent clusters to be at least 1 kb away from each other. The threshold for the number of tags that determine a valid peak was selected for an FDR <0.001, as empirically determined by repeating the peak finding procedure using randomized tag positions. […]

VDR-PCAF interaction = test: Immunoprecipitation of endogenous PCAF with HA-VDR in INS1 cells; conditions: INS1 cells expressing HA-VDR, 1 hr after treatment
Protocol: Immunoprecipitations were performed as described previously (He et al., 2010, Mol. Cell 38, 428-38). Briefly, cells are lysed using ice-cold lysis buffer (HEPES 20 mM pH8, EDTA 0.2 mM, NaCl 0.3 mM, NP40 0.5%, 15% glycerol) for 15 min, and after centrifuging the supernatant was collected. For HA- or Flag-tagged proteins, immunoprecipitations were performed using HA-magnetic beads (Pierce, P188836), or Flag-magnetic beads (Sigma, M8823) for 1.5 hr at 4° C. For other immunoprecipitations, primary antibodies were incubated with lysates for 2 hr followed by Protein A magnetic beads (Life Technologies, 10001D). After 3 washes with wash buffer (HEPES 10 mM pH8, EDTA 0.2 mM, NaCl 0.3 mM, NP40 0.1%, 15% glycerol), the beads were boiled with NuPage LDS sample buffer and the lysates were stored at −20° C.

[1] = system: VDR association with BAF/PBAF complex components; test: VDR interactome (MudPIT, Western blot) in INS1 cells expressing HA-tagged VDR; conditions: for VDR interactions of key components of the PBAF complex (PBRM1, ARID2): INS1 cells expressing HA-tagged VDR; for VDR association of proteins common to the BAF and PBAF complexes: e.g. SMARCA1, SMARCA2, SMARCA4
Protocol: Immunoprecipitations were performed as described previously (He et al., 2010, Mol. Cell 38, 428-38). Briefly, cells are lysed using ice-cold lysis buffer (HEPES 20 mM pH8, EDTA 0.2 mM, NaCl 0.3 mM, NP40 0.5%, 15% glycerol) for 15 min, and after centrifuging the supernatant was collected. For HA- or Flag-tagged proteins, immunoprecipitations were performed using HA-magnetic beads (Pierce, P188836), or Flag-magnetic beads (Sigma, M8823) for 1.5 hr at 4° C. For other immunoprecipitations, primary antibodies were incubated with lysates for 2 hr followed by Protein A magnetic beads (Life Technologies, 10001D). After 3 washes with wash buffer (HEPES 10 mM pH8, EDTA 0.2 mM, NaCl 0.3 mM, NP40 0.1%, 15% glycerol), the beads were boiled with NuPage LDS sample buffer and the lysates were stored at -20° C. Samples were precipitated by methanol/chloroform. Dried pellets were dissolved in 8 M urea/100 mM TEAB, pH 8.5. […] Proteins were digested overnight at 37° C. in 2 M urea/100 mM TEAB, pH 8.5, with trypsin (Promega). Digestion was quenched with formic acid, 5% final concentration. The digested samples were analyzed on a Fusion Orbitrap tribrid mass spectrometer (Thermo). The digest was injected directly onto a 30 cm, 75 um ID column packed with BEH 1.7 um C18 resin (Waters). Samples were separated at a flow rate of 200 nl/min on a nLC 1000 (Thermo). […] Column was re-equilibrated with 20 ul of buffer A prior to the injection of sample. Peptides were eluted directly from the tip of the column and nanosprayed directly into the mass spectrometer by application of 2.5 kV voltage at the back of the column. The Orbitrap Fusion was operated in a data-dependent mode. Full MS1 scans were collected in the Orbitrap at […] resolution with a mass range of 400 to 1600 m/z and an AGC target of 5e5. The cycle time was set to 3 sec, and within this 3 sec the most abundant ions per scan were selected for CID MS/MS in the ion trap with an AGC target of 1e4 and minimum intensity of 5000. Maximum fill times were set to 50 ms and 100 ms for MS and MS/MS scans respectively. Quadrupole isolation at 1.6m/z was used, monoisotopic precursor selection was enabled and dynamic exclusion was used with exclusion duration of 5 sec. Protein and peptide identification were done with Integrated Proteomics Pipeline-IP2 (Integrated Proteomics Applications). Tandem mass spectra were extracted from raw files using RawConverter (ref1) and searched with ProLuCID (ref2) against rat UniProt database. The search space included all fully-tryptic and half-tryptic peptide candidates. Carbamidomethylation on cysteine was considered as a static modification. Acetylation (42.010565) was considered as a differential modification on Lysine and the N-terminus. […]

| Compound | reversal of IL1β-induced changes in H3K27 acetylation (INS1 cells) | PCAF binding to VDR (VDR-PCAF interaction) | VDR interactions of key components of the PBAF complex (PBRM1, ARID2) [1] | VDR association of proteins common to the BAF and PBAF complexes [1] |
| --- | --- | --- | --- | --- |
| C=C1/C(=C\C=C2/CCC[C@]3(C)[C@@H]([C@H](C)/C=C/[C@@H](O)C4CC4)CC[C@@H]23)C[C@@H](O)C[C@@H]1O [Cal, calcipotriol] | partially reverse the impact of IL1β | increased | significantly increased | increased |
| CCn1cc(-c2cccc(C(F)(F)F)c2)c2sc(C(=N)NC3CCS(=O)(=O)CC3)cc2c1=O [iBRD9] | partially reverse the impact of IL1β | increased | significantly increased | increased |
